Assay [1] addresses Recombinant full length human OGA enzyme (Homo sapiens (Human), UniProt O60502). Kind of assay: OGA Enzyme Inhibition Biochemical Assay. The settings on record: 1 nM OGA, 100 μM 4-MUGlcNAc, 90 minutes, pH 6.4. The protocol: Recombinant full length human OGA enzyme was purchased from Origene. 4-MUGlcNAc substrate was purchased from Sigma. All other reagents were purchased from Sigma or Fisher. Assay buffer consists of the McIlvaine buffer system, pH 6.4 (0.2M Na2HPO4 mixed with 0.1M citric acid) and 0.01% BSA. […] Reactions were incubated for 90 minutes at room temperature and quenched with 40 μl of 3M glycine, pH 10 and read on a Perkin Elmer Envision plate reader (Ex: 355 nm/Em: 460 nm). Compounds were tested with a 10-point dose-response starting from 20 μM with a 4-fold dilution. Data was fit using GraphPad Prism using a 4-parameter fit with variable slope.

The target in the next assay is OGA (S400 O-GLCNAC) (Homo sapiens (Human), UniProt O60502). Kind of assay: Cellular OGA-Tau MSD Assay. The settings on record: HEK-293T cells transfected with OGT and Tau-V5; Tau-S400-GlcNAc MSD readout. It counts as cell-based. The protocol:
HEK-293T cells were transfected with OGT and Tau-V5 plasmids using Lipofectamine and grown overnight. Next day, the cells were collected and re-plated at 1×10^5 cells per well in 96 well plates. Cells were incubated for 4 hr at 37° C., before compounds were added at 1 uM, with 3-fold dilutions in a 10-point titration. Cell plates were incubated with compounds overnight at 37° C. The next day media was removed from wells by gentle aspiration and 120 ul of 1× Cell Lysis buffer mixed with protease and phosphatase cocktail added to each well. A freeze thaw was performed at −80° C., then mixed before transferring 50 μl to MSD plates coated with V5-tag antibody to capture Tau. MSD Plates were incubated overnight at 4° C., on a plate shaker. The following day, plates were washed and incubated with Tau-S400-GlcNAc antibody for 2 hr and then developed with rabbit Sulfo-tag antibody. Final read out was carried out on an MSD 600 reader. The data was analyzed using Graph Pad or Genedata, the data was normalized and % activity versus log of compound concentration was plotted. The ICso values were obtained from a 4 parameter fit.

Where only a bound is given, the exact number is not on record here.

Usually IC50 stands for the point on the concentration scale where inhibition reaches its midpoint.

Chain of Recombinant full length human OGA enzyme (O60502 whole entry): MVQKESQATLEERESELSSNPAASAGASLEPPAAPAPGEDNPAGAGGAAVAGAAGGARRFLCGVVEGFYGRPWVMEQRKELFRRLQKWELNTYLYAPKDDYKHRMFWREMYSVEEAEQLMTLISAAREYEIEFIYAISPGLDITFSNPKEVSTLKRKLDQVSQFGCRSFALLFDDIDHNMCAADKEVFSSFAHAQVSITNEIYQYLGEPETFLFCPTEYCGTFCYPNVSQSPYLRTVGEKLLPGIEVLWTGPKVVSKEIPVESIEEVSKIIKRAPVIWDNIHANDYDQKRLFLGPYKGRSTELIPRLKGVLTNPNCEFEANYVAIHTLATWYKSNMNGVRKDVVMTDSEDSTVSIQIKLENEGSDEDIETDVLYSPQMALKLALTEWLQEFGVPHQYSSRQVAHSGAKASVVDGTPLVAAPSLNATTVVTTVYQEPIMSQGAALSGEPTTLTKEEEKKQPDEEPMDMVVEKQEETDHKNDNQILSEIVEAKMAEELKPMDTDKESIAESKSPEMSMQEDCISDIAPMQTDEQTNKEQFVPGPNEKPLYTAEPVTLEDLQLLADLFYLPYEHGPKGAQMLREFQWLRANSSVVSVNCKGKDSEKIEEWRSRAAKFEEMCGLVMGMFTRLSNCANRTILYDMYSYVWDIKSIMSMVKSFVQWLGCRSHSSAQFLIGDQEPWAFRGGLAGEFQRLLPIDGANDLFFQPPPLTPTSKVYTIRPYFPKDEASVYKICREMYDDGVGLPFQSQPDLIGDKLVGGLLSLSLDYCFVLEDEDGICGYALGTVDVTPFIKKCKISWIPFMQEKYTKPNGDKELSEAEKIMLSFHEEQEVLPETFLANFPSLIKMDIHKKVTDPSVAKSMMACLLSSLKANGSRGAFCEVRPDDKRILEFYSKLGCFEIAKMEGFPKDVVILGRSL
Chain of OGA (S400 O-GLCNAC) (O60502 whole entry): as above

Consider `CC(=O)Nc1ncc(CN2C[C@@]3(C[C@@H]2C)OCc2cnccc23)s1` (single isomer, unassigned) [Example 65-a], for which the IC50 in assay [1] is 24 nM.

For `CC(=O)Nc1ncc(CN2CC3(C[C@@H]2C)OCc2cccnc23)s1` (stereo partly drawn) [Example 62, N-(5-(((5′S)-5′-Methyl-5H-spiro[furo[3,4-b]pyridine-7,3′-pyrrolidin]-1′-yl)methyl)thiazol-2-yl)acetamide], the concentration for half-maximal inhibition (IC50) was 73 nM against OGA (S400 O-GLCNAC) and 44 nM in assay [1].

For the molecule `CC(=O)Nc1ncc(CN2CCCC3(CCc4ccccc43)C2)s1` (stereo not drawn) [Example 53, N-(5-((2,3-Dihydrospiro[indene-1,3′-piperidin]-1′-yl)methyl)thiazol-2-yl)acetamide], the results for the IC50 (against OGA (S400 O-GLCNAC); in assay [1]) were 532 nM and 73 nM, respectively.

With `CC(=O)Nc1nc(F)c(CN2CC3(C[C@@H]2C)OCc2ccccc23)s1` (stereo partly drawn) [Example 58, N-(4-Fluoro-5-(((5′S)-5′-methyl-3H-spiro[isobenzofuran-1,3′-pyrrolidin]-1′-yl)methyl)thiazol-2-yl)acetamide], the IC50 was 14 nM against OGA (S400 O-GLCNAC) and 4.2 nM in assay [1].

As for `CC(=O)Nc1nc(F)c(CN2C[C@@]3(Cc4cc(C)ncc4O3)C[C@@H]2C)s1` [Example 23, N-(5-(((2R,5′S)-5,5′-Dimethyl-3H-spiro[furo[2,3-c]pyridine-2,3′-pyrrolidin]-1′-yl)methyl)-4-fluorothiazol-2-yl)acetamide], the results for the half-inhibitory concentration (IC50) (on OGA (S400 O-GLCNAC); in assay [1]) were 13 nM and 1 nM, respectively.

Consider `CC(=O)Nc1nc(F)c(CN2CCCC3(C2)OCc2c3ccnc2Cl)s1` (racemic) [Example 83, N-(5-((4-Chloro-3H-spiro[furo[3,4-c]pyridine-1,3′-piperidin]-1′-yl)methyl)-4-fluorothiazol-2-yl)acetamide], for which the half-inhibitory concentration (IC50) came to 18.3 nM against OGA (S400 O-GLCNAC) and 5.9 nM in assay [1].

On to `CC(=O)Nc1nc(F)c(CN2CCC[C@]3(C2)OCc2c3ccnc2Cl)s1` [Example 84-b, (S)—N-(5-((4-chloro-3H-spiro[furo[3,4-c]pyridine-1,3′-piperidin]-1′-yl)methyl)-4-fluorothiazol-2-yl)acetamide], for which the IC50 against OGA (S400 O-GLCNAC) was > 1000 nM; in assay [1], 310 nM.

Regarding `CC(=O)Nc1nc(F)c(CN2CCCC3(C2)OCc2cccnc23)s1` (stereo not drawn) [Example 61, N-(5-((5H-Spiro[furo[3,4-b]pyridine-7,3′-piperidin]-1′-yl)methyl)-4-fluorothiazol-2-yl)acetamide], the IC50 in assay [1] was determined as 29 nM.

As to `CC(=O)Nc1nc(F)c(CN2C[C@@]3(Cc4cc(NC5CC5)ncc4O3)C[C@@H]2C)s1` [Example 31, N-(5-(((2R,5′S)-5-(Cyclopropylamino)-5′-methyl-3H-spiro[furo[2,3-c]pyridine-2,3′-pyrrolidin]-1′-yl)methyl)-4-fluorothiazol-2-yl)acetamide], the IC50 was 15 nM against OGA (S400 O-GLCNAC) and < 1 nM in assay [1].

On to `CC(=O)Nc1nc(F)c(CN2CCC[C@@]3(C2)OCc2cnccc23)s1` (single isomer, unassigned) [Example 70-a], for which the IC50 against OGA (S400 O-GLCNAC) amounted to 8.4 nM; in assay [1], 1.4 nM.

In the case of `CC(=O)Nc1nc(F)c(CN2C[C@@]3(Cc4cc(C(F)(F)F)ncc4O3)C[C@@H]2C)s1` [Example 21, N-(4-Fluoro-5-(((2R,5′S)-5′-methyl-5-(trifluoromethyl)-3H-spiro[furo[2,3-c]pyridine-2,3′-pyrrolidin]-1′-yl)methyl)thiazol-2-yl)acetamide], the concentration for half-maximal inhibition (IC50) was found to be 6 nM at OGA (S400 O-GLCNAC) and 7 nM in assay [1].

As to `COc1ccc2c(n1)C[C@]1(C[C@H](C)N(Cc3sc(NC(C)=O)nc3F)C1)O2` [Example 20, N-(4-Fluoro-5-(((2S,5′S)-5-methoxy-5′-methyl-3H-spiro[furo[3,2-b]pyridine-2,3′-pyrrolidin]-1′-yl)methyl)thiazol-2-yl)acetamide], the IC50 on OGA (S400 O-GLCNAC) is 4 nM; in assay [1], < 1 nM.

As for `COCCN(C)c1cc2c(cn1)O[C@]1(C2)C[C@H](C)N(Cc2cnc(NC(C)=O)s2)C1` [Example 32, N-(5-(((2R,5′S)-5-((2-Methoxyethyl)(methyl)amino)-5′-methyl-3H-spiro[furo[2,3-c]pyridine-2,3′-pyrrolidin]-1′-yl)methyl)thiazol-2-yl)acetamide], the half-inhibitory concentration (IC50) is 7 nM at OGA (S400 O-GLCNAC) and < 1 nM in assay [1].

With `CC(=O)Nc1ncc(CN2CCC3(Cc4cnccc4O3)C2)s1` (stereo not drawn) [Example 13, N-(5-((3H-Spiro[furo[3,2-c]pyridine-2,3′-pyrrolidin]-1′-yl)methyl)thiazol-2-yl)acetamide], the half-maximal inhibitory concentration (IC50) against OGA (S400 O-GLCNAC) is 796 nM; in assay [1] it was 130 nM.

For the molecule `CC(=O)Nc1ncc(CN2CCCC3(C2)OCc2ccccc23)s1` (stereo not drawn) [Example 55, N-(5-((3H-Spiro[isobenzofuran-1,3′-piperidin]-1′-yl)methyl)thiazol-2-yl)acetamide], the IC50 against OGA (S400 O-GLCNAC) was determined as 250 nM; in assay [1], 24.5 nM.

For the molecule `CC(=O)Nc1ncc(CN2CCC3(Cc4cc(Cl)ccc4O3)C2)s1` (stereo not drawn) [Example 5, N-(5-((5-Chloro-3H-spiro[benzofuran-2,3′-pyrrolidin]-1′-yl)methyl)thiazol-2-yl)acetamide], the IC50 in assay [1] worked out at 150 nM.

As for `CC(=O)Nc1nc(F)c(CN2CC3(Cc4nc(O)cnc4O3)C[C@@H]2C)s1` (stereo partly drawn) [Example 51, N-(4-fluoro-5-(((5′S)-2-hydroxy-5′-methyl-7H-spiro[furo[2,3-b]pyrazine-6,3′-pyrrolidin]-1′-yl)methyl)thiazol-2-yl)acetamide], the IC50 against OGA (S400 O-GLCNAC) turned out to be 59 nM; in assay [1] it was 91 nM.

As to `CCOc1cc2c(cn1)O[C@]1(C2)C[C@H](C)N(Cc2sc(NC(C)=O)nc2F)C1` [Example 46, N-(5-(((2R,5′S)-5-Ethoxy-5′-methyl-3H-spiro[furo[2,3-c]pyridine-2,3′-pyrrolidin]-1′-yl)methyl)-4-fluorothiazol-2-yl)acetamide], the half-maximal inhibitory concentration (IC50) against OGA (S400 O-GLCNAC) was 3 nM; in assay [1] it was < 1 nM.

Regarding `CC(=O)Nc1nc(F)c(CN2CCC3(Cc4cccnc4O3)C2)s1` (stereo not drawn) [Example 15, N-(5-((3H-Spiro[furo[2,3-b]pyridine-2,3′-pyrrolidin]-1′-yl)methyl)-4-fluorothiazol-2-yl)acetamide], the IC50 in assay [1] was 1700 nM.

Consider `CC(=O)Nc1nc(F)c(CN2CCC3(Cc4cc(Cl)ccc4O3)C2)s1` (stereo not drawn) [Example 6, N-(5-((5-Chloro-3H-spiro[benzofuran-2,3′-pyrrolidin]-1′-yl)methyl)-4-fluorothiazol-2-yl)acetamide], for which, in assay [1], the IC50 was 140 nM.

Regarding `CC(=O)Nc1nc(F)c(CN2C[C@]3(C[C@@H]2C)OCc2cnccc23)s1` (single isomer, unassigned) [Example 64-b], the IC50 in assay [1] was determined as 170 nM.

On to `CC(=O)Nc1ncc(CN2C[C@@]3(C[C@@H]2C)OCc2ccncc23)s1` [Example 71-a, N-(5-(((3S,5′S)-5′-Methyl-1H-spiro[furo[3,4-c]pyridine-3,3′-pyrrolidin]-1′-yl)methyl)thiazol-2-yl)acetamide], for which the IC50 in assay [1] was determined as 150 nM.

Consider `CC(=O)Nc1ncc(CN2C[C@]3(C[C@@H]2C)OCc2ccncc23)s1` [Example 71-b, N-(5-(((3R,5′S)-5′-methyl-1H-spiro[furo[3,4-c]pyridine-3,3′-pyrrolidin]-1′-yl)methyl)thiazol-2-yl)acetamide], for which the half-inhibitory concentration (IC50) in assay [1] turned out to be 260 nM.

With `CC(=O)Nc1nc(F)c(CN2C[C@]3(C[C@@H]2C)OCc2ccncc23)s1` (single isomer, unassigned) [Example 72-b], in assay [1], the concentration for half-maximal inhibition (IC50) was determined as 110 nM.

Molecule `COc1nccc2c1COC21C[C@H](C)N(Cc2sc(NC(C)=O)nc2F)C1` (stereo partly drawn) [Example 77, N-(4-Fluoro-5-(((5′S)-4-methoxy-5′-methyl-3H-spiro[furo[3,4-c]pyridine-1,3′-pyrrolidin]-1′-yl)methyl)thiazol-2-yl)acetamide] registered a half-maximal inhibitory concentration (IC50) at OGA (S400 O-GLCNAC) of 7 nM.

In turn, `CC(=O)Nc1nc(F)c(CN2CC3(C[C@@H]2C)OCc2ncccc23)s1` (stereo partly drawn) [Example 79, N-(4-Fluoro-5-(((5′S)-5′-methyl-7H-spiro[furo[3,4-b]pyridine-5,3′-pyrrolidin]-1′-yl)methyl)thiazol-2-yl)acetamide] returned an IC50 on OGA (S400 O-GLCNAC) of 5 nM.

As for `CC(=O)Nc1nc(F)c(CN2CCC3(Cc4ccncc4O3)C2)s1` (stereo not drawn) [Example 90, N-(5-((3H-spiro[furo[2,3-c]pyridine-2,3′-pyrrolidin]-1′-yl)methyl)-4-fluorothiazol-2-yl)acetamide], the IC50 in assay [1] was 120 nM.

Take `CC(=O)Nc1ncc(CN2C[C@]3(C[C@@H]2C)OCc2cnccc23)s1` (single isomer, unassigned) [Example 65-b]: the IC50 in assay [1] turned out to be 440 nM.

`CC(=O)Nc1nc(F)c(CN2C[C@@]3(C[C@@H]2C)OCc2ccncc23)s1` (single isomer, unassigned) [Example 72-a]: the IC50 in assay [1] is 30 nM.

For the molecule `CC(=O)Nc1ncc(CN2CCC3(Cc4cccnc4O3)C2)s1` (stereo not drawn) [Example 14, N-(5-((3H-Spiro[furo[2,3-b]pyridine-2,3′-pyrrolidin]-1′-yl)methyl)thiazol-2-yl)acetamide], the 50% inhibitory concentration (IC50) in assay [1] is 3800 nM.

(Values after patent publication US12565504B2, “Spirocyclic O-glycoprotein-2-acetamido-2-deoxy-3-d-glucopyranosidase inhibitors” (BIOGEN MA INC., priority 2019, dated 2026).)
